Measurements: article PMC10743905, “Design, Synthesis, and In Vitro and In Vivo Bioactivity Studies of Hydrazide–Hydrazones of 2,4-Dihydroxybenzoic Acid” (International Journal of Molecular Sciences, 2023)
Values after ≈ are worked out from the molar mass of the structure shown. Where two headings read alike, the source gives them in different places.

Key:
[1] = tested on: reference Gram-positive bacteria; assay: Broth microdilution, summary over the Gram-positive panel; type: cell-based
Text: In vitro antimicrobial activity assays - Methodology
The examined compounds 1 - 24 were screened in vitro for antibacterial and antifungal activities using the broth microdilution method according to procedure reported earlier by our research group and European Committee on Antimicrobial Susceptibility Testing (EUCAST) and Clinical and Laboratory Standards Institute (CLSI) guidelines against a panel of reference and clinical or saprophytic strains of microorganisms, in-cluding Gram-positive bacteria, Staphylococcus aureus ATCC 43300 (Methicillin Resistant S. aureus – MRSA), Staphylococcus aureus ATCC 29213 (Methicillin Susceptible S. aureus – MSSA), Staphylococcus epidermidis ATCC 12228, Enterococcus faecalis ATCC 29212, Micro-coccus luteus ATCC 10240, Bacillus subtilis ATCC 6633 and Bacillus cereus ATCC 10876), Gram-negative bacteria (Bordetella bronchiseptica ATCC 4617, Escherichia coli ATCC 25922, Klebsiella pneumoniae ATCC 13883, Proteus mirabilis ATCC 12453, Salmonella typhimurium ATCC 14028 and Pseudomonas aeruginosa ATCC 9027) and fungi belonging to yeasts (Can-dida albicans ATCC 10231, Candida albicans ATCC 2091, Candida parapsilosis ATCC 22019, Candida glabrata ATCC 90030 and Candida krusei ATCC 14243). The microorganisms be-longing to ATCC came from American Type Culture Collection, routinely used for the evaluation of antimicrobials. […]
Samples containing examined compounds were dissolved in dimethyl sulfoxide (DMSO). […]
Subsequently, the MIC (Minimal Inhibitory Concentration) of the compounds was ex-amined by the microdilution broth method, using their two-fold dilutions in Mueller- […]
Hinton broth or (for bacteria) and RPMI 1640 broth with MOPS (for fungi) prepared in 96-well polystyrene plates. Final concentrations of the compounds ranged from 1000 to 0.488 µg/ml. Microbial suspensions were prepared in 0.85% NaCl with an optical density of 0.5 McFarland standard. Next each bacterial or fungal suspension was added per each well containing broth and various concentrations of the examined compounds. After incuba-

SMILES | melting point [°C] | MBC [1] [µg/mL] | MIC ([1]; read-out: MIC) [µg/mL] | MIC [1] [µg/mL]
CCCc1ccc(/C=N/NC(=O)c2ccc(O)cc2O)cc1 [Compound 13, 2,4-dihydroxy-N-[(4-propylphenyl)methylidene]benzohydrazide] | 197 | > 1000 | 1000 (≈ 3350 µM) | 
O=C(N/N=C/c1cc(I)cc(I)c1O)c1ccc(O)cc1O [Compound 18, 2,4-dihydroxy-N-[(2-hydroxy-3,5-diiodophenyl)methylidene]benzohydrazide] | 220 | 1.95 to 31.2 (≈ 3.72 to 59.6 µM) | 0.48 to 7.81 (≈ 0.916 to 14.9 µM) | 
O=C(N/N=C/c1ccccc1[N+](=O)[O-])c1ccc(O)cc1O [Compound 19, 2,4-dihydroxy-N-[(2-nitrophenyl)methylidene]benzohydrazide] |  |  |  | 250 to 1000 (≈ 830 to 3320 µM)
O=C(N/N=C/c1ccc([N+](=O)[O-])cc1)c1ccc(O)cc1O [Compound 21, 2,4-dihydroxy-N-[(4-nitrophenyl)methylidene]benzohydrazide] |  |  |  | 500 to 1000 (≈ 1660 to 3320 µM)
